Reference: US20240391948A1, “NOVEL COMPOUND THAT INHIBITS TNF-ALPHA GENERATION AND INFLAMMASOME ACTIVITY AND PREPARATION METHOD THEREFOR” (SHAPERON INC., priority 2021, published 2024)

Tests used:
Type in all cases: cell-based
[1] = system: J774A.1 (Mouse BALB/c monocyte macrophage cell line) cells; assay: LPS-induced TNF-α secretion inhibition in J774A.1 cells; settings: J774.A1, 1 μM compound, graded compared to taurodeoxycholic acid (positive control), read-out: TNF-α production inhibition grade
Procedure: (§1) To evaluate anti-inflammatory efficacy, an inflammatory response was induced in J774A.1 (Mouse BALB/c monocyte macrophage cell line) cells derived from mouse macrophages by LPS (lipopolysaccharide) and LPS+ATP (adenosine triphosphate), and the efficacy of taurine-bile acid derivatives to inhibit the production of inflammatory cytokines (IL-1β, TNF-α) was measured. After treating J774A.1 cells with 1 μM of a taurine-bile acid derivative, the degree to which the secretion of TNF-α among cytokines was suppressed was measured in the experimental group in which an inflammatory response was induced by LPS, and the extent to which IL-1β secretion among cytokines was suppressed was measured in the experimental group in which an inflammatory response was induced with LPS+ATP. The ability of taurine-bile acid derivatives to inhibit cytokine production was graded compared to taurodeoxycholic acid, a positive control. The grading criteria are A: over 100%, B: over 50% and under 100%, C: between 20% and under 50%, and D: under 20%.

[2] = system: J774A.1 (Mouse BALB/c monocyte macrophage cell line) cells; assay: LPS+ATP-induced IL-1β secretion inhibition in J774A.1 cells; settings: J774.A1, 1 μM compound, graded compared to taurodeoxycholic acid (positive control), read-out: IL-1β production inhibition grade
Procedure: as §1

[3] = system: U937 cells (human monocytic cell line); assay: Pam2CSK4-induced TNF-α secretion inhibition in PMA-differentiated U937 cells; settings: U-937, U937 cells differentiated with PMA, read-out: TNF-α production inhibition grade (IC50)
Procedure: (§2) To evaluate anti-inflammatory efficacy, U937 cells (human monocytic cell line) were differentiated into macrophages using PMA (phorbol 12-myristate 13-acetate) and then induced an inflammatory response with Pam2CSK4 (Pam2CysSerLys4) or BzATP (2′(3′)—O-(4-Benzoylbenzoyl)adenosine 5′-triphosphate), the efficacy of taurine-bile acid derivatives in suppressing inflammatory cytokine (IL-1β, TNF-α) production was measured.
(§3) Using PMA, U937 cells were differentiated into macrophages, and the extent of TNF-α secretion inhibition was measured in an experimental group where taurine-bile acid derivatives was treated, followed by induction of inflammatory response with Pam2CSK4, and in the experimental group in which an inflammatory response was induced with BzATP, the extent to which IL-1β secretion among cytokines was suppressed was measured.
(§4) The ability of taurine-bile acid derivatives to inhibit cytokine production was expressed in terms of IC50 (μM) values. The standards for TNF α inhibition ability are A: less than 0.5, B: 0.5 to less than 1.0, C: 1.0 to less than 2.0, D: 2.0 or more, and the IL-1β inhibition ability grade standards are A: less than 0.05, B: 0.05 to less than 0.10, C: 0.10 or more and less than 0.20, D: 0.20 or more.

[4] = system: U937 cells (human monocytic cell line); assay: BzATP-induced IL-1β secretion inhibition in PMA-differentiated U937 cells; settings: U-937, U937 cells differentiated with PMA, read-out: IL-1β production inhibition grade (IC50)
Procedure: as §2, §3, §4

| SMILES | inhibition at 1 µM [1] [%] | inhibition at 1 µM [2] [%] | IC50 [3] [nM] | IC50 [4] [nM] |
| --- | --- | --- | --- | --- |
| C[C@H](CCC(=O)N1CCC[C@H](S(=O)(=O)O)C1)[C@H]1CC[C@H]2[C@@H]3[C@H](O)C[C@@H]4C[C@H](O)CC[C@]4(C)[C@H]3C[C@H](O)[C@]12C [NC20009] | < 20 | < 20 | ≥ 2000 | < 50 |
| CC[C@H]1[C@@H](O)[C@@H]2[C@H](C[C@H](O)[C@]3(C)[C@@H]([C@H](C)CCC(=O)N[C@H](CC(C)C)CS(=O)(=O)O)CC[C@@H]23)[C@@]2(C)CC[C@@H](O)C[C@@H]12 [NC50031] | < 20 | 50 to 100 | ≥ 2000 | 50 to 100 |
| C[C@H](CCC(=O)N[C@H](CO)CS(=O)(=O)O)[C@H]1CC[C@H]2[C@@H]3CC[C@@H]4C[C@H](O)CC[C@]4(C)[C@H]3CC[C@]12C [NC10081] | > 100 | > 100 | 500 to 1000 | < 50 |
| C[C@H](CCC(=O)N(CCS(=O)(=O)O)Cc1cccnc1)[C@H]1CC[C@H]2[C@@H]3CC[C@@H]4CC(=O)CC[C@]4(C)[C@H]3CC[C@]12C [NC30036] | – | – | 1000 to 2000 | ≥ 200 |
| CC[C@H]1[C@@H](O)[C@@H]2[C@H](C[C@H](O)[C@]3(C)[C@@H]([C@H](C)CCC(=O)N4CCC(S(=O)(=O)O)CC4)CC[C@@H]23)[C@@]2(C)CC[C@@H](O)C[C@@H]12 [NC50011] | – | – | ≥ 2000 | ≥ 200 |
| C[C@H](CCC(=O)N(CCS(=O)(=O)O)C1CCOCC1)[C@H]1CC[C@H]2[C@@H]3CC[C@@H]4C[C@H](O)CC[C@]4(C)[C@H]3C[C@H](O)[C@]12C [NC10025] | – | – | 1000 to 2000 | 50 to 100 |
| CC[C@H]1[C@@H](O)[C@@H]2[C@H](C[C@H](O)[C@]3(C)[C@@H]([C@H](C)CCC(=O)N[C@@H](CS(=O)(=O)O)C(C)C)CC[C@@H]23)[C@@]2(C)CC[C@@H](O)C[C@@H]12 [NC50017] | – | – | 1000 to 2000 | 50 to 100 |
| CC[C@H]1[C@@H](O)[C@@H]2[C@H](CC[C@]3(C)[C@@H]([C@H](C)CCC(=O)NCCCO)CC[C@@H]23)[C@@]2(C)CC[C@@H](O)C[C@@H]12 [NC40003] | – | – | ≥ 2000 | ≥ 200 |
| CC[C@H]1[C@@H](O)[C@@H]2[C@H](C[C@H](O)[C@]3(C)[C@@H]([C@H](C)CCC(=O)NCCC(=O)O)CC[C@@H]23)[C@@]2(C)CC[C@@H](O)C[C@@H]12 [NC50002] | – | – | ≥ 2000 | ≥ 200 |
| C[C@H](CCC(=O)N(CCS(=O)(=O)O)Cc1ccccc1)[C@H]1CC[C@H]2[C@@H]3CC[C@@H]4CC(=O)CC[C@]4(C)[C@H]3CC[C@]12C [NC30005] | – | – | 500 to 1000 | ≥ 200 |
| C[C@H](CCC(=O)N[C@H](CS(=O)(=O)O)c1ccccc1)[C@H]1CC[C@H]2[C@@H]3CC[C@@H]4C[C@H](O)CC[C@]4(C)[C@H]3C[C@H](O)[C@]12C [NC10034] | – | – | 500 to 1000 | 50 to 100 |
| C[C@H](CCC(=O)NCCCO)[C@H]1CC[C@H]2[C@@H]3CC[C@@H]4C[C@H](O)CC[C@]4(C)[C@H]3C[C@H](O)[C@]12C [NC10021] | – | – | 1000 to 2000 | 50 to 100 |
| C[C@H](CCC(=O)N(CCS(=O)(=O)O)Cc1cccnc1)[C@H]1CC[C@H]2[C@@H]3CC[C@@H]4C[C@H](O)CC[C@]4(C)[C@H]3CC[C@]12C [NC10092] | – | – | ≥ 2000 | 50 to 100 |
| C[C@H](CCC(=O)N(CCS(=O)(=O)O)c1ccccc1)[C@H]1CC[C@H]2[C@@H]3CC[C@@H]4C[C@H](O)CC[C@]4(C)[C@H]3CC[C@]12C [NC10093] | – | – | ≥ 2000 | 100 to 200 |
| C[C@H](CCC(=O)NCCCO)[C@H]1CC[C@H]2[C@@H]3[C@H](O)C[C@@H]4C[C@H](O)CC[C@]4(C)[C@H]3C[C@H](O)[C@]12C [NC20003] | 50 to 100 | 20 to 50 | – | 50 to 100 |
| C[C@H](CCC(=O)N[C@@H](CO)CS(=O)(=O)O)[C@H]1CC[C@H]2[C@@H]3CC[C@@H]4CC(=O)CC[C@]4(C)[C@H]3CC[C@]12C [NC30024] | – | – | 1000 to 2000 | ≥ 200 |
| CC[C@H]1[C@@H](O)[C@@H]2[C@H](C[C@H](O)[C@]3(C)[C@@H]([C@H](C)CCC(=O)N(CCS(=O)(=O)O)Cc4ccccc4)CC[C@@H]23)[C@@]2(C)CC[C@@H](O)C[C@@H]12 [NC50005] | – | – | 1000 to 2000 | ≥ 200 |
| C[C@H](CCC(=O)N1CCC[C@H]1CS(=O)(=O)O)[C@H]1CC[C@H]2[C@@H]3CC[C@@H]4CC(=O)CC[C@]4(C)[C@H]3CC[C@]12C [NC30021] | – | – | 500 to 1000 | 50 to 100 |
| CC[C@H]1[C@@H](O)[C@@H]2[C@H](CC[C@]3(C)[C@@H]([C@H](C)CCC(=O)N(CCS(=O)(=O)O)Cc4ccccc4)CC[C@@H]23)[C@@]2(C)CC[C@@H](O)C[C@@H]12 [NC40005] | – | – | ≥ 2000 | ≥ 200 |
| CC[C@H]1[C@@H](O)[C@@H]2[C@H](CC[C@]3(C)[C@@H]([C@H](C)CCC(=O)N[C@H](CS(=O)(=O)O)C(C)C)CC[C@@H]23)[C@@]2(C)CC[C@@H](O)C[C@@H]12 [NC40016] | – | – | 500 to 1000 | ≥ 200 |
| CC[C@H]1[C@@H](O)[C@@H]2[C@H](C[C@H](O)[C@]3(C)[C@@H]([C@H](C)CCC(=O)NC[C@@H](C)S(=O)(=O)O)CC[C@@H]23)[C@@]2(C)CC[C@@H](O)C[C@@H]12 [NC50023] | – | – | ≥ 2000 | ≥ 200 |
| CC(C)N(CCS(=O)(=O)O)C(=O)CC[C@@H](C)[C@H]1CC[C@H]2[C@@H]3CC[C@@H]4CC(=O)CC[C@]4(C)[C@H]3CC[C@]12C [NC30007] | – | – | < 500 | ≥ 200 |
| C[C@H](CCC(=O)N[C@@H]1CCCC[C@@H]1S(=O)(=O)O)[C@H]1CC[C@H]2[C@@H]3CC[C@@H]4CC(=O)CC[C@]4(C)[C@H]3CC[C@]12C [NC30026] | – | – | < 500 | ≥ 200 |
| C[C@H](CCC(=O)NC1(CS(=O)(=O)O)CC1)[C@H]1CC[C@H]2[C@@H]3CC[C@@H]4CC(=O)CC[C@]4(C)[C@H]3CC[C@]12C [NC30032] | – | – | 500 to 1000 | ≥ 200 |
| CC[C@H]1[C@@H](O)[C@@H]2[C@H](C[C@H](O)[C@]3(C)[C@@H]([C@H](C)CCC(=O)N4CCC[C@H](S(=O)(=O)O)C4)CC[C@@H]23)[C@@]2(C)CC[C@@H](O)C[C@@H]12 [NC50009] | – | – | 1000 to 2000 | 100 to 200 |
| CC[C@H]1[C@@H](O)[C@@H]2[C@H](CC[C@]3(C)[C@@H]([C@H](C)CCC(=O)N[C@@H]4CCCC[C@@H]4S(=O)(=O)O)CC[C@@H]23)[C@@]2(C)CC[C@@H](O)C[C@@H]12 [NC40026] | – | – | 500 to 1000 | 50 to 100 |
| CC[C@H]1[C@@H](O)[C@@H]2[C@H](C[C@H](O)[C@]3(C)[C@@H]([C@H](C)CCC(=O)N[C@@H](Cc4ccccc4)CS(=O)(=O)O)CC[C@@H]23)[C@@]2(C)CC[C@@H](O)C[C@@H]12 [NC50014] | – | – | 500 to 1000 | < 50 |
